# Source: US10071098B2, “Compositions useful for treating herpes simplex labialis and/or herpes esophagitis, and methods using same” (DREXEL UNIVERSITY, priority 2014, dated 2018)
# Tests used:
# HSV-1 strain KOS [1] = experiment: HSV-1 replication in OKF6 cells (qPCR genome copy number and viral yield); format: cell-based; settings: for HSV-1 replication over time course of lytic infection (genome copy number, viral yield): MOI=0.1, FIGS. 8A-8B; for HSV-1 replication as measured by qPCR and viral yield, dose dependence: MOI=0.1, analysis at 20 hours post infection, FIGS. 7A-7C; for effect on reducing HSV-1 replication when combined with acyclovir: low dose of inhibitor combined with low doses of acyclovir, MOI=0.1, FIGS. 11A-11B
# Protocol: (§1) All cells were cultured at 37° C. and 5% CO2 and supplemented with 100 U/mL penicillin and 100 U/mL streptomycin. OKF6/TERT2 human oral mucosal keratinocyte cells were cultured in GIBCO Keratinocyte serum free medium (K-sfm) supplemented with bovine pituitary extract, epidermal growth factor, and calcium chloride (Life Technologies Carlsbad, Calif.). These cells are immortalized by expression of hTERT (Dickson, et al., 2000, Mol. Cell. Biol. 20(4):1436-1447). EPC2 human esophageal epithelial cells were cultured in K-sfm (Carlsbad, Calif.). KOS strain (Smith, Proc. Soc. Exp. Biol. Med. Soc. Exp. Biol. Med. 115:814-816) of HSV-1 was used in all infections. All viral stocks were titered on CV-1 monolayers.
# (§2) Subconfluent monolayers of cells were grown in six-well plates. Drug treatments were administered 60 minutes prior to infection and continued for the entire duration of each experiment. Infections with KOS strain of HSV-1 were carried out in six-well plates in a 200 μL inoculum volume at 37° C. for 1 hour with intermittent rocking. The cells were then rinsed and overlaid with fresh medium.
# (§3) Unless indicated otherwise, KU-55933 (Batch No. 5, 99.7% purity; Tocris Bioscience, Bristol, UK) and Chk2 Inhibitor II (Sigma-Aldrich, St. Louis, Mo.) were used at 10 μM final concentration, phosphonoacetic acid (PAA) at 400 μg/mL (Sigma-Aldrich, St. Louis, Mo.), and acyclovir at 50 μg/mL (Sigma-Aldrich). KU-55933 and Chk2 Inhibitor II were dissolved in dimethyl sulfoxide (DMSO), and the final concentration of DMSO for KU-55933, Chk2 Inhibitor II, and mock treatments for all in vitro experiments was 0.1%.
# (§4) Viral genome replication and transcription were measured by quantitative PCR (qPCR). Total DNA and RNA from infected cells were isolated using the DNeasy Blood & Tissue Kit and the RNeasy Mini Kit, respectively (QIAGEN, Hilden, Germany). RNA was converted to cDNA using qScript (Quanta BioSciences, Gaithersburg, Md.). Real-time qPCR was performed with SYBR Green (Bio-Rad, Hercules, Calif.). Target primers for UL30 (DNA polymerase catalytic subunit) and reference primers for glyceraldehyde 3-phosphate dehydrogenase (GAPDH) were used to measure genome replication. Transcription of the three gene families was measured with primers for RL2 (ICP0), UL30 (DNA polymerase catalytic subunit), UL23 (thymidine kinase), and UL44 (gC), with reference primers for the 18S ribosomal RNA (rRNA).
# HSV-1 strain KOS [2] = experiment: Protein synthesis of HSV-1 factors in infected OKF6 cells (Western blot); format: cell-based; settings: for protein synthesis of HSV-1 early gene ICP8 / protein synthesis of HSV-1 immediate early gene ICP0 / protein synthesis of HSV-1 leaky-late gene gB / protein synthesis of HSV-1 true-late gene gC: MOI=5, FIGS. 9A-9B; for gC level, inhibitor applied before infection or up to 1 hour post infection / gC level, inhibitor applied between 2 to 3 hours post infection: MOI=5, FIGS. 10A-10B; for gC level, inhibitor applied 4 hours post infection: MOI=5, compared to wild type infection, FIGS. 10A-10B
# Protocol: as §1
# Subconfluent monolayers of cells were grown in six-well plates. […] Infections with KOS strain of HSV-1 were carried out in six-well plates in a 200 μL inoculum volume at 37° C. for 1 hour with intermittent rocking. The cells were then rinsed and overlaid with fresh medium.
# as §3
# Standard protocol was followed for Western blot analysis. Cell lysates were collected in 200 μL Laemmli buffer, vortexed, and boiled at 95° C. for 5 minutes. Protein concentrations were measured by bicinchoninic acid (BCA) assay. SDS-PAGE was followed by transfer onto a polyvinylidene difluoride (PVDF) membrane, which was then blocked in 5% BSA. Primary antibodies against the following proteins were used: ICP0 (mouse monoclonal; Virusys Corporation, Taneytown, Md.), ICP4 and nucleolin (both mouse monoclonal; Santa Cruz Biotechnology, Santa Cruz, Calif.), ICP8 (rabbit polyclonal), glycoprotein B and C (mouse monoclonal and rabbit polyclonal, respectively), ATM and pATM S1981 (rabbit polyclonal and mouse monoclonal, respectively; Rockland), Chk2 and pChk2 T68 (rabbit polyclonal and mouse monoclonal, respectively; Cell Signaling). Blots were stained with secondary antibodies and visualized with the Odyssey near-infrared system (LI-COR, Lincoln, Nebr.).
# HSV-1 strain KOS [3] = experiment: Transcription of HSV-1 genes in infected OKF6 cells (qPCR); format: cell-based; settings: for effect on viral early factor thymidine kinase: MOI=0.1, FIGS. 9C-9E; for transcription of true-late gene gC: qPCR, MOI=0.1, FIG. 9E
# Protocol: as §1, §2, §3, §4
# [4] = system: acyclovir-resistant strain of HSV-1, dlspTK; experiment: Replication of acyclovir-resistant HSV-1 in OKF6 cells; format: cell-based; settings: MOI=0.1, FIGS. 12A-12B
# HSV-1 = experiment: In vivo model of HSV-1 lip infection (herpes simplex labialis) in mice; settings: BALB/c mice infected on the lower lip; applied every 4 hours for first 12 hours, then every 8 hours for 5 days; FIGS. 13A-13B
# Protocol: KU-55933 and Chk2 Inhibitor II were also efficacious at reducing HSV-1 in an in vivo model of infection (FIGS. 13A-13B). BALB/c mice were infected with HSV-1 on the lower lip, and KU-55933 or Chk2 Inhibitor II was applied every 4 hours for the first 12 hours post infection followed by treatments every 8 hours for the next 5 days. The mice were scored based on the severity of the symptoms, and tracked over the course of infection.
# ATM = ATM activation in HSV-1-infected OKF6 cells (Western blot); format: cell-based, human; settings: MOI=5.0, FIG. 6
# Protocol: All cells were cultured at 37° C. and 5% CO2 and supplemented with 100 U/mL penicillin and 100 U/mL streptomycin. OKF6/TERT2 human oral mucosal keratinocyte cells were cultured in GIBCO Keratinocyte serum free medium (K-sfm) supplemented with bovine pituitary extract, epidermal growth factor, and calcium chloride (Life Technologies Carlsbad, Calif.). […] KOS strain (Smith, Proc. Soc. Exp. Biol. Med. Soc. Exp. Biol. Med. 115:814-816) of HSV-1 was used in all infections. All viral stocks were titered on CV-1 monolayers.
# Unless indicated otherwise, KU-55933 (Batch No. 5, 99.7% purity; Tocris Bioscience, Bristol, UK) and Chk2 Inhibitor II (Sigma-Aldrich, St. Louis, Mo.) were used at 10 μM final concentration, phosphonoacetic acid (PAA) at 400 μg/mL (Sigma-Aldrich, St. Louis, Mo.), and acyclovir at 50 μg/mL (Sigma-Aldrich). […]
# Standard protocol was followed for Western blot analysis. […] Protein concentrations were measured by bicinchoninic acid (BCA) assay. […]
Structure (SMILES),"HSV-1 replication over time course of lytic infection (genome copy number, viral yield) (HSV-1 strain KOS [1])","HSV-1 replication as measured by qPCR and viral yield, dose dependence (HSV-1 strain KOS [1])",effect on reducing HSV-1 replication when combined with acyclovir (HSV-1 strain KOS [1]),protein synthesis of HSV-1 early gene ICP8 (HSV-1 strain KOS [2]),protein synthesis of HSV-1 immediate early gene ICP0 (HSV-1 strain KOS [2]),protein synthesis of HSV-1 leaky-late gene gB (HSV-1 strain KOS [2]),protein synthesis of HSV-1 true-late gene gC (HSV-1 strain KOS [2]),"gC level, inhibitor applied before infection or up to 1 hour post infection (HSV-1 strain KOS [2])","gC level, inhibitor applied between 2 to 3 hours post infection (HSV-1 strain KOS [2])","gC level, inhibitor applied 4 hours post infection (HSV-1 strain KOS [2])",effect on viral early factor thymidine kinase (HSV-1 strain KOS [3]),transcription of true-late gene gC (HSV-1 strain KOS [3]),replication (genome copy numbers) of acyclovir-resistant HSV-1 strain dlspTK [4],severity of symptoms (score) during the time course of infection (HSV-1),ATM activation (ATM)
"NC(=O)c1ccc2[nH]c(-c3ccc(Oc4ccc(Cl)cc4)cc3)nc2c1 [Chk2 Inhibitor II, 2-(4-(4-chlorophenoxy)phenyl)-1H-benzimidazole-5-carboxamide]",reduced HSV-1 replication throughout the entire time course of lytic infection,reduced HSV-1 replication in a dose dependent manner,additive to greater-than-additive effect,no impact,no impact,no impact,large reduction,large reduction of gC,Low levels of gC were produced,no impact on gC levels,minimal effect,prevent the transcription,greatly reduced replication,statistically significant decrease in the severity of symptoms,
"O=c1cc(-c2cccc3c2Sc2ccccc2S3)oc(N2CCOCC2)c1 [KU-55933, 2-(morpholin-4-yl)-6-(thianthren-1-yl)-pyran-4-one]",reduced HSV-1 replication throughout the entire time course of lytic infection,reduced HSV-1 replication in a dose dependent manner,additive to greater-than-additive effect,no impact,no impact,no impact,large reduction,large reduction of gC,Low levels of gC were produced,no impact on gC levels,minimal effect,reduction,greatly reduced replication,statistically significant decrease in the severity of symptoms,inhibited ATM activation
